Results taken from patent publication US20220409629A1, “BENZODIAZEPINE DERIVATIVES FOR TREATING A RESPIRATORY SYNCYTIAL VIRUS (RSV) INFECTION” (priority 2019, published 2022).
Where two headings read alike, the source gives them in different places.

Legend:
[1] = Liver hepatocyte stability, dog; assay type: in vitro ADME; conditions: dog hepatocytes, 3 μM compound, 60 min, >80% remaining at 60 min denoted >186, read-out: Liver Hepatocyte Stability: t1/2 (min)
Experimental: (§1) Cryopreserved pooled hepatocytes were purchased from a reputable commercial supplier and stored in liquid nitrogen prior to use. Williams E media supplemented with 2 mM L-glutamine and 25 mM HEPES and test compound (final substrate concentration 3 μM; final DMSO concentration 0.25%) are pre-incubated at 37° C. prior to the addition of a suspension of cryopreserved hepatocytes (final cell density 0.5×10^6 viable cells/mL in Williams E media supplemented with 2 mM L-glutamine and 25 mM HEPES) to initiate the reaction. The final incubation volume is 500 μL. Two control compounds were included with each species, alongside appropriate vehicle control. The reactions are stopped by transferring 50 μL of incubate to 100 μL acetonitrile containing internal standard at the appropriate time points. Samples were removed at 6 time points (0, 5, 15, 30, 45 and 60 min) over the course of a 60 min experiment. The termination plates are centrifuged at 2500 rpm at 4° C. for 30 min to precipitate the protein. Following protein precipitation, the sample supernatants were combined in cassettes of up to 4 compounds and analysed using generic LC-MS/MS conditions. From a plot of ln peak area ratio (compound peak area/internal standard peak area) against time, the gradient of the line is determined. Subsequently, half-life (t1/2) and intrinsic clearance (CLint) were calculated.

[2] = Liver hepatocyte stability, human; assay type: in vitro ADME; conditions: human hepatocytes, 3 μM compound, 60 min, >80% remaining at 60 min denoted >186, read-out: Liver Hepatocyte Stability: t1/2 (min)
Experimental: as §1

[3] = Liver microsomal stability, rat; assay type: in vitro ADME; conditions: pH 7.4; rat liver microsomes, 0.5 mg/mL protein, 1 μM compound, NADPH; >80% remaining at 45 min denoted >140; read-out: Liver Microsomal Stability: t1/2 (min); rat
Outline: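 Pooled liver microsomes (0.5 mg/mL protein) in 0.1 M phosphate pH 7.4 with 1 μM compound (0.25% DMSO), started with 1 mM NADPH at 37° C; sampled 0-45 min, minus-NADPH control 45 min. LC-MS/MS depletion slope gave t1/2 and CLint.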

[4] = tested on: RSV A2; assay: RSV plaque reduction assay; assay type: cell-based, respiratory syncytial virus (RSV); conditions: human respiratory syncytial virus, HepG2; Hep-G2 cells, RSV A2, mean of at least two experiments
Outline: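 RSV A2 (100 PFU/well) premixed with eight serial compound dilutions, added to confluent Hep-G2 monolayers for 2 h at 37° C, then held 2 days under CMC overlay containing compound (DMEM, 2% FBS). Plaques immunostained (HRP/TrueBlue) and counted; EC50 is 50% reduction versus virus control from 4-parameter fit, mean of ≥2 experiments.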

[5] = Cell cytotoxicity CC50; assay type: cell-based; conditions: human; mean of at least two experiments
[6] = Dog pharmacokinetics in vivo; conditions: plasma, male Beagle dogs; for concentration at 8 h: read-out: C 8 h; for AUC(0-t): read-out: PO AUClast
Experimental: The pharmacokinetics of compounds of the invention were studied in vivo in dogs.
Male Beagle dogs were treated with experimental compounds via intravenous administration (n=2; 0.5 mg/kg) or oral administration (n=2; 3 mg/kg or 4 mg/kg). Compounds were formulated as a solution in 20% dimethylacetamide/80% (2-hydroxypropyl)-β-cyclodextrin (20% w/v) (IV administration) or a solution in 10% dimethylacetamide/90% (2-hydroxypropyl)-β-cyclodextrin (20% w/v) (PO administration). […] Serial blood samples were collected from the jugular vein at 0.03, 0.08, 0.25, 0.5, 1, 2, 4, 6, 8 and 24 h post IV dosing of compound, and at 0.08, 0.25, 0.5, 1, 2, 4, 6, 8 and 24 h post oral dosing of compound, and plasma was prepared by centrifugation and stored immediately at −80° C. Samples were subsequently thawed, prepared for analysis by protein precipitation with acetonitrile, and analysed by tandem LCMS using electrospray ionisation using a matrix-matched calibration curve. PK parameters were calculated from the resulting data.

[7] = IV 0.5 mg/kg, read-out: IV t1/2 (converted)
[8] = PO 4 mg/kg, read-out: PO t1/2 (converted)

CCn1ncc(C(=O)N[C@H]2N=C(c3ccccc3)c3ccccc3NC2=O)c1-c1ccc(NC(C)C)nc1F [Example 3, 1-Ethyl-5-[2-fluoro-6-(propan-2-ylamino)pyridin-3-yl]-N-[(3S)-2-oxo-5-phenyl-1,3-dihydro-1,4-benzodiazepin-3-yl]pyrazole-4-carboxamide]
half-life at 3 µM [1]: 67.4 min
half-life at 3 µM [2]: 52.6 min
half-life at 1 µM [3]: 88.8 min
EC50 [4]: 97 nM
CC50 at 2 days [5]: > 25000 nM

CCn1ncc(C(=O)N[C@H]2N=C(c3ccccc3)c3ccccc3NC2=O)c1-c1ccc(NC2CC2)nc1F [Example 4, 1-Ethyl-5-[2-fluoro-6-(cyclopropylamino)pyridin-3-yl]-N-[(3S)-2-oxo-5-phenyl-1,3-dihydro-1,4-benzodiazepin-3-yl]pyrazole-4-carboxamide]
half-life [1]: 42.1 min
concentration at 8 h ([6]; Dose: IV/PO 0.5/4 mg/kg): 56.1 ng/mL
Cmax ([6]; Dose: IV/PO 0.5/4 mg/kg): 780 ng/mL
bioavailability ([6]; Dose: IV/PO 0.5/4 mg/kg): 41.5%
Vd ([6]; IV 0.5 mg/kg): 0.79 L/kg
clearance ([6]; IV 0.5 mg/kg): 10.3 mL/min/kg
half-life [6, 7]: 1 h
AUC(0-t) ([6]; PO 4 mg/kg): 2680 ng·h/mL
half-life [6, 8]: 2.3 h
half-life [2]: 53.5 min
half-life [3]: 68.5 min
EC50 [4]: 42 nM
CC50 [5]: > 25000 nM

O=C(N[C@H]1N=C(c2ccccc2)c2cccc(F)c2NC1=O)c1cnn(C2CCOCC2)c1-c1ccc(NC2CC2)nc1F [Example 21, 5-[6-(Cyclopropylamino)-2-fluoropyridin-3-yl]-N-[(3S)-9-fluoro-2-oxo-5-phenyl-1,3-dihydro-1,4-benzodiazepin-3-yl]-1-(oxan-4-yl)pyrazole-4-carboxamide]
half-life [1]: > 186 min
concentration at 8 h ([6]; Dose: IV/PO 0.5/3 mg/kg): 146 ng/mL
Cmax ([6]; Dose: IV/PO 0.5/3 mg/kg): 500 ng/mL
bioavailability ([6]; Dose: IV/PO 0.5/3 mg/kg): 33.6%
Vd ([6]; IV 0.5 mg/kg): 1.3 L/kg
clearance ([6]; IV 0.5 mg/kg): 4.2 mL/min/kg
half-life [6, 7]: 7.6 h
AUC(0-t) ([6]; PO 3 mg/kg): 3610 ng·h/mL
half-life ([6]; PO 3 mg/kg, read-out: PO t1/2 (converted)): 5.6 h
half-life [2]: > 186 min
half-life [3]: 87.6 min
EC50 [4]: 21 nM
CC50 [5]: > 25000 nM

CC(C)Nc1ccc(-c2c(C(=O)N[C@H]3N=C(c4ccccc4)c4cccc(F)c4NC3=O)cnn2C2CCOCC2)c(F)n1 [Example 22, N-[(3S)-9-fluoro-2-oxo-5-phenyl-1,3-dihydro-1,4-benzodiazepin-3-yl]-5-[2-fluoro-6-(propan-2-ylamino)pyridin-3-yl]-1-(oxan-4-yl)pyrazole-4-carboxamide]
half-life [1]: 90.7 min
concentration at 8 h ([6]; Dose: IV/PO 0.5/4 mg/kg): 281 ng/mL
Cmax ([6]; Dose: IV/PO 0.5/4 mg/kg): 692 ng/mL
bioavailability ([6]; Dose: IV/PO 0.5/4 mg/kg): 40.1%
Vd ([6]; IV 0.5 mg/kg): 1.4 L/kg
clearance ([6]; IV 0.5 mg/kg): 4.1 mL/min/kg
half-life [6, 7]: 4.9 h
AUC(0-t) ([6]; PO 4 mg/kg): 6050 ng·h/mL
half-life [6, 8]: 6.8 h
half-life [2]: 207 min
half-life [3]: > 140 min
EC50 [4]: 40 nM
CC50 [5]: > 25000 nM

CCNc1ccc(-c2c(C(=O)N[C@H]3N=C(c4ccccc4)c4cccc(F)c4NC3=O)cnn2C2CCOCC2)c(F)n1 [Example 24, 5-[6-(Ethylamino)-2-fluoropyridin-3-yl]-N-[(3S)-9-fluoro-2-oxo-5-phenyl-1,3-dihydro-1,4-benzodiazepin-3-yl]-1-(oxan-4-yl)pyrazole-4-carboxamide]
half-life [1]: 139 min
concentration at 8 h ([6]; Dose: IV/PO 0.5/4 mg/kg): 67 ng/mL
Cmax ([6]; Dose: IV/PO 0.5/4 mg/kg): 450 ng/mL
bioavailability ([6]; Dose: IV/PO 0.5/4 mg/kg): 22.7%
Vd ([6]; IV 0.5 mg/kg): 0.86 L/kg
clearance ([6]; IV 0.5 mg/kg): 6.5 mL/min/kg
half-life [6, 7]: 1.5 h
AUC(0-t) ([6]; PO 4 mg/kg): 2300 ng·h/mL
half-life [6, 8]: 2.4 h
half-life [2]: 162 min
half-life [3]: 484 min
EC50 [4]: 33 nM
CC50 [5]: > 25000 nM
